According to patent US20180194805A1, “USE OF PENTAPEPTIDE-3 KTTKS OR HEXAPEPTIDE-3 KTTKSF FOR TREATING DEGENERATIVE JOINT DISEASE” (Advanced Healthtech Biopeptide Laboratories Co., LTD., priority 2017, published 2018):
Entries after “also recorded” stand apart in the source; their conditions may differ.

What was measured:
[1] = system: NO, SOD and MDA in synovial liquid; assay: Biochemical indicators (NO, SOD, MDA) in synovial liquid of the rabbit model; format: in vivo, New Zealand white rabbits
Source text: As used in the present invention, all of the methods for measuring SOD, NO and MDA in synovial liquid and collagen and proteoglycan in extracellular matrix of cartilage have been known and conventionally used in the art.
(§1) Fifteen (15) healthy adult New Zealand white rabbits were randomly divided into three (3) groups: a normal control group (Group A), a model control group (Group B) and a test group subject to intra-articular injection of a test peptide (Group C), with five (5) rabbits included in each of the groups. Fasting was conducted within four hours before surgical operations. Ketamine (10 mg/kg) and atropine (0.2 mg/kg) were injected in the muscle of each rabbit. After anesthesia took effect, each rabbit was confined to an operating table. An 8 cm-long longitudinal scission was made in the back of each knee before the skin was lifted. From the back of the knee, the articular capsule and synovial were opened. Then, the knee was bent for 90° to expose the cartilage at a lower end of the femur. Two cylindrical cutouts of 3 mm in diameter and 3 mm in depth were made. Coagulation was removed from each of the cutouts. The joint cavity was washed with a sterile saline solution. Stitches were made for each section. After the surgical operation, injection of penicillin was conducted against infection for a week. After five (5) days, each rabbit was able to eat and stand normally.
(§2) Two (2) weeks after the surgical operation, the rabbits of Group A and Group B were not treated, whereas the rabbits of Group C were subject to intra-articular injection of 250 ppm/kg of pentapeptide-3 KTTKS once for every seven (7) days, and the injection lasted for twelve (12) weeks. Articular injection of 0.5 ml of saline was executed, and then 0.2 ml of synovial liquid was collected. The articular capsule was cut and opened, synovial was removed, and an entire tibial joint was taken. Arthropathy in arthrodial cartilage was observed by bare eyes and also via surgical lens. Slices were taken, dyed by hematoxylin and eosin stain (HE Stain) and toluidine blue, and then observed in an optical microscope.

[2] = system: arthrodial cartilage of the knee joint; assay: Rabbit knee cartilage injury model: observation by bare eyes and histomorphometry; format: in vivo, New Zealand white rabbits; settings: intra-articular 250 ppm/kg once every 7 days
Description: as §1, §2

[3] = system: cartilage cells of the growth plate; assay: Cultivated cartilage cells: DNA content, collagen and proteoglycan production; format: cell-based, rabbits; settings: 250 ppm; samples after 3, 7 and 14 days
Description: Firstly, cartilage cells of the growth plate of the same rabbits were taken and continuously cultivated. The cultivated cells were divided into three groups. In Group I, only 250 ppm of pentapeptide-3 KTTKS was added. In Group II, only 100 ng/ml of collagen was added. In Group III, 250 ppm of pentapeptide-3 KTTKS and 100 ng/ml of collagen were added. A negative control group was also used. After new tissues of cartilage grew at a lower portion of a centrifuge tube, the new tissues were transferred to a 24-well platefor continuing cultivation, wherein the culture medium was replaced for every 2 days. During the cultivation, samples were collected after three (3), seven (7) and fourteen (14) days, and then were analyzed.
For the histological and histochemical measurements, samples were collected, and HE dying and immunochemical measurement (S-P method) were executed.
The content of DNA in the cells of cartilage was determined by the method of Hoechst 33258.
Extracellular matrix of cartilage primarily comprises collagen and proteoglycan composed of glycosaminoglycan and core protein, in addition to water. The content of the matrix and its status of the metabolism were quantitatively analyzed by determining a level of the collagen and proteoglycan in the new tissues of cartilage.
The synthesis of the collagen of the cartilage is measured by the hydroxyproline method. Because the content of hydroxyproline in the collagen was substantially constant (about 10% by weight), an amount of hydroxyproline could be used to analyze the amount of the collagen of the cartilage by using a commercial kit including the hydroxyproline reagent. The content of the collagen in the samples was calculated.

[4] = Group C: intra-articular injection of 250 ppm/kg once every 7 days for 12 weeks
[5] = intra-articular 250 ppm/kg once every 7 days, 12 weeks

In the case of “pentapeptide-3 KTTKS (printed: Lys-Thr-Thr-Lys-Ser) [pentapeptide Lys-Thr-Thr-Lys-Ser; test peptide injected intra-articularly in Group C]”, the “MDA level in synovial liquid” value [1, 4] is reported as 15.23 ± 5.62 c/mol · L^−1, the “NO level in synovial liquid” value [1, 4] is reported as 25.11 ± 3.65 c/mol · L^−1 and the “SOD level in synovial liquid” value [1, 4] is reported as 6.18 ± 2.17 c/mol · L^−1. For the same substance, the “Change of MDA level in synovial liquid compared with model control Group B” value [1, 5] was “considerably reduced”, the “Change of SOD level in synovial liquid compared with model control Group B” value [1, 5] was “considerably increased” and the “Histomorphometric observation of repaired tissues (HE stain, toluidine blue)” value ([2]; after 12 weeks) was “the repaired tissues were not substantially different from the normal tissues of the knee joint; also recorded: considerably repaired the damaged tissues of cartilage”. For the same substance, the “Repair of knee joint injuries observed by bare eyes” value ([2]; after 12 weeks) was “the injuries were completely repaired”, the “Morphosis of the arthrodial cartilage compared with model control Group B” value ([2]; 12 weeks) was “significant improvement” and the “Content of DNA of the cells of the cartilage versus control group (Hoechst 33258, FIG. 1)” value [3] was “statistically different from that of the control group”. The “Hyperosteogeny of the cells of the cartilage” value [3] was “considerable hyperosteogeny”, the “Production of collagen in cartilage tissue (hydroxyproline method, FIG. 2)” value [3] was “considerably increased” and the “Production of proteoglycan of cartilage tissue (FIG. 3)” value [3] was “considerably increased”.
